In article PMC2932887 (Journal of medicinal chemistry, 2010):
Read-outs that look alike come from different tables or passages of the source.

Experiments:
recombinant rat NAAA [1] = molecular target: T1, recombinant rat NAAA (Rattus norvegicus, UniProt Q5KTC7); assay: NAAA assay: inhibition of heptadecenoylethanolamide hydrolysis; type: biochemical; conditions: for NAAA inhibitory activity (in words): recombinant rat NAAA
T1 sequence (Q5KTC7 131-362 limits assumed): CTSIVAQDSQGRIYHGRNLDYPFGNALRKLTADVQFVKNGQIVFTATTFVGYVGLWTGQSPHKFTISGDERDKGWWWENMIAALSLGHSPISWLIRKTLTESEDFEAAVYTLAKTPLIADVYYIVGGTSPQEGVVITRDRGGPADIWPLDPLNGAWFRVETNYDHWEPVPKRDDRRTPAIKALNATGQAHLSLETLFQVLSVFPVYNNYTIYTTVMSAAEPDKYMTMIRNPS
T1 sequence (Q5KTC7 34-130 partner limits assumed): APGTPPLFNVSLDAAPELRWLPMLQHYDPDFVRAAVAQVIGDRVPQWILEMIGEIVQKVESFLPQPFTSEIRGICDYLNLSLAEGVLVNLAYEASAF

recombinant rat NAAA [2] = molecular target: T1, recombinant rat NAAA; conditions: intracellular NAAA activity; cited from earlier work
FAAH = conditions: cited from earlier work
monoacylglycerol lipase = conditions: cited from earlier work
[3] = system: diacylglycerol lipase type-α; conditions: cited from earlier work
[4] = molecular target: T2, Recombinant NAAA expressed in HEK-293 Cells (Rattus norvegicus, UniProt Q5KTC7); assay: Michaelis-Menten analysis of NAAA in presence of inhibitor; type: biochemical
T2 sequence (Q5KTC7 131-362 limits assumed): T1 sequence (Q5KTC7 131-362 limits assumed)
T2 sequence (Q5KTC7 34-130 partner limits assumed): T1 sequence (Q5KTC7 34-130 partner limits assumed)

Row | Structure (SMILES) | NAAA inhibitory activity (in words) (recombinant rat NAAA [1]) | also measured
1 | O=C1OCC1CCCCc1ccccc1 (racemic) [compound 23, rac-3-(4-Phenylbutyl)oxetan-2-one] | low potency | 
2 | O=C(CCc1ccccc1)N[C@H]1COC1=O [7a, (S)-N-(2-Oxo-3-oxetanyl)-3-phenylpropionamide] |  | mechanism of NAAA inhibition (recombinant rat NAAA [2]): non-competitive; inhibition of FAAH (FAAH): no inhibition; inhibition of monoacylglycerol lipase (monoacylglycerol lipase): no inhibition; inhibition of diacylglycerol lipase type-α [3]: no inhibition
3 | O=C(N[C@H]1COC1=O)c1ccc(-c2ccccc2)cc1 [7h, (S)-N-(2-Oxo-3-oxetanyl)biphenyl-4-carboxamide] |  | mechanism of NAAA inhibition (recombinant rat NAAA [1]; preincubation time-course, Michaelis-Menten analysis, overnight dialysis): rapid, noncompetitive and reversible; Vmax ([4]; 100 nM inhibitor): 10.8 ± 2.5 nmol/min/mg; Vmax ([4]; 200 nM inhibitor): 6.2 ± 0.2 nmol/min/mg
4 | O=C(CCc1ccccc1)N[C@H]1CCOC1=O [11a, (S)-N-(2-Oxotetrahydrofuran-3-yl)-3-phenylpropionamide] | entirely devoid of inhibitory activity | 
5 | O=C(N[C@H]1CCOC1=O)c1ccc2ccccc2c1 [11j, (S)-N-(2-Oxotetrahydrofuran-3-yl)-2-naphthamide] | inactivity | 
6 | C[C@H]1OC(=O)[C@H]1NC(=O)CCc1ccccc1 [20a, (2R,3S)-N-(2-Methyl-4-oxo-3-oxetanyl)-3-phenylpropionamide] | complete loss of activity | 
7 | O=C(CCc1ccccc1)N[C@@H](CO)C(=O)O [compound 10, (S)-3-Hydroxy-2-(3-Phenylpropionylamino)propionic Acid] | entirely devoid of inhibitory activity | 
8 | O=C(CCc1ccccc1)NC1CCC1 [compound 12, N-Cyclobutyl-3-phenylpropionamide] | entirely devoid of inhibitory activity | 
9 | O=C(CCc1ccccc1)NC1CCC1=O (centres unmarked) [compound 15, N-(2-Oxocyclobutyl)-3-phenylpropionamide] | entirely devoid of inhibitory activity | 
